# Test results from ChEMBL document CHEMBL5120888, “Voratins A-C: Pyridinium Alkaloids from the Marine Dinoflagellate Effrenium voratum with Inhibitory Effects on Biomarkers for Benign Prostatic Hyperplasia” (J Nat Prod, 2022).
# Calls of active or inactive are those of the source. The calls are words filed in the database; no cut-off is given here.
# Experiments:
# [1] = system: RWPE-1; assay: Cytotoxicity against human RWPE-1 cells at 0.1 to 1 uM incubated for 24 hrs by MTT assay; assay type: toxicity, cell-based; settings: rwpe-1, 24 h, dose 0.1-1 µM
# [2] = system: LNCaP; assay: Inhibition of testosterone propionate induced AR expression in human LNCaP cells pretreated with TP for 1 hr followed by compound addition at 1 to 10 uM by Western blotting analysis; assay type: functional, cell-based; settings: dose 1-10 µM
# [3] = Inhibition of testosterone propionate induced 5AR2 expression in human LNCaP cells pretreated with TP for 1 hr followed by compound addition at 10 uM by Western blotting analysis; assay type: functional
# [4] = Inhibition of testosterone propionate induced PSA expression in human LNCaP cells pretreated with TP for 1 hr followed by compound addition at 10 uM by Western blotting analysis; assay type: functional
# [5] = system: LNCaP; assay: Inhibition of testosterone propionate induced PSA expression in human LNCaP cells pretreated with TP for 1 hr followed by compound addition at 1 to 10 uM by Western blotting analysis; assay type: functional, cell-based; settings: dose 1-10 µM
# [6] = system: RWPE-1; assay: Inhibition of testosterone propionate induced PCNA expression in human RWPE-1 cells pretreated with TP for 1 hr followed by compound addition at 1 to 10 uM by Western blotting analysis; assay type: functional, cell-based; settings: dose 1-10 µM
# [7] = Inhibition of testosterone propionate induced PSA expression in human RWPE-1 cells pretreated with TP for 1 hr followed by compound addition at 1 to 10 uM by Western blotting analysis; assay type: functional; design: scale not given: the % may be the effect or the level left; settings: dose 1-10 µM
# [8] = system: LNCaP; assay: Suppression of testosterone propionate induced 5AR2 expression in human LNCaP cells pretreated with TP for 1 hr followed by compound addition at 10 uM by Western blotting analysis; assay type: functional, cell-based
# [9] = system: LNCaP; assay: Suppression of testosterone propionate induced AR expression in human LNCaP cells pretreated with TP for 1 hr followed by compound addition at 10 uM by Western blotting analysis; assay type: functional, cell-based
# [10] = system: LNCaP; assay: Suppression of testosterone propionate induced PSA expression in human LNCaP cells pretreated with TP for 1 hr followed by compound addition at 10 uM by Western blotting analysis; assay type: functional, cell-based
SMILES,Activity [1],inhibition [2],inhibition at 10 µM [3] [%],inhibition at 10 µM [4] [%],inhibition [5],inhibition [6],Activity [7] [%],Activity [8],Activity [9],Activity [10]
C=C1C[C@H](C(=O)[O-])O[C@@]2(C1)C[C@@H](C)C[C@H]([C@@H](O)c1cccc3[n+]1CC[C@@H]3C)O2,Non-Toxic,Active,53,53,–,–,–,–,–,–
C=C1C[C@H](C(=O)[O-])O[C@@]2(C1)C[C@@H](C)C[C@H]([C@@H](O)c1cccc3[n+]1CC[C@H]3C)O2,Non-Toxic,Active,–,–,Active,–,–,–,–,–
C[C@@H]1C[C@H]([C@@H](O)c2cccc3[n+]2CC[C@@H]3C)O[C@@]2(CC[C@H](C(=O)[O-])O2)C1,Non-Toxic,Active,61,61,Active,Active,65,–,–,–
CC(C)(C)NC(=O)[C@H]1CC[C@H]2[C@@H]3CC[C@H]4NC(=O)C=C[C@]4(C)[C@H]3CC[C@]12C,–,–,–,–,–,–,–,Active,Active,Active
